Reference: the NIST ThermoML archive (doi:10.1021/acs.jced.9b00442)
± gives the expanded uncertainty stated by the source.

Settings: 100 kPa, Liquid; for electrical conductivity: Frequency=0.0006 MHz, Alternating current cell with electrodes; for viscosity: Concentric cylinders viscometry; for mass density: Vibrating tube method

CC[N+](C)(CCO)CCO.O=S(=O)([N-]S(=O)(=O)C(F)(F)F)C(F)(F)F
electrical conductivity (283.15 K): 0.027 ± 0.001 S/m | viscosity (288.15 K): 536.2 ± 27 mPa·s | electrical conductivity (288.15 K): 0.04 ± 0.001 S/m | mass density (288.15 K): 1524.5 ± 1.2 kg/m3 | mass density (289.15 K): 1523.6 ± 1.2 kg/m3 | mass density (290.15 K): 1522.7 ± 1.2 kg/m3 | mass density (291.15 K): 1521.7 ± 1.2 kg/m3 | mass density (292.15 K): 1520.8 ± 1.2 kg/m3 | electrical conductivity (293.15 K): 0.056 ± 0.001 S/m | mass density (293.15 K): 1519.9 ± 1.2 kg/m3 | mass density (294.15 K): 1519 ± 1.2 kg/m3 | mass density (295.15 K): 1518 ± 1.2 kg/m3 | mass density (296.15 K): 1517.1 ± 1.2 kg/m3 | mass density (297.15 K): 1516.2 ± 1.2 kg/m3 | viscosity (298.15 K): 268.3 ± 12 mPa·s | electrical conductivity (298.15 K): 0.076 ± 0.002 S/m | mass density (298.15 K): 1515.3 ± 1.2 kg/m3 | mass density (299.16 K): 1514.4 ± 1.2 kg/m3 | mass density (300.16 K): 1513.4 ± 1.2 kg/m3 | mass density (301.15 K): 1512.5 ± 1.2 kg/m3 | mass density (302.15 K): 1511.6 ± 1.2 kg/m3 | viscosity (303.15 K): 197.7 ± 8.7 mPa·s | electrical conductivity (303.15 K): 0.101 ± 0.002 S/m | mass density (303.15 K): 1510.7 ± 1.2 kg/m3 | mass density (304.15 K): 1509.8 ± 1.2 kg/m3 | mass density (305.15 K): 1508.9 ± 1.2 kg/m3 | mass density (306.15 K): 1508 ± 1.2 kg/m3 | mass density (307.15 K): 1507.1 ± 1.2 kg/m3 | viscosity (308.15 K): 149 ± 6.3 mPa·s | electrical conductivity (308.15 K): 0.13 ± 0.003 S/m | mass density (308.15 K): 1506.2 ± 1.2 kg/m3 | mass density (309.15 K): 1505.3 ± 1.2 kg/m3 | mass density (310.15 K): 1504.4 ± 1.2 kg/m3 | mass density (311.15 K): 1503.5 ± 1.2 kg/m3 | mass density (312.15 K): 1502.6 ± 1.2 kg/m3 | viscosity (313.15 K): 112.6 ± 4.7 mPa·s | electrical conductivity (313.15 K): 0.165 ± 0.003 S/m | mass density (313.15 K): 1501.7 ± 1.2 kg/m3 | mass density (314.15 K): 1500.8 ± 1.2 kg/m3 | mass density (315.15 K): 1499.9 ± 1.2 kg/m3 | mass density (316.15 K): 1499 ± 1.2 kg/m3 | mass density (317.15 K): 1498.1 ± 1.2 kg/m3 | viscosity (318.15 K): 89.9 ± 3.7 mPa·s | electrical conductivity (318.15 K): 0.206 ± 0.004 S/m | mass density (318.15 K): 1497.2 ± 1.2 kg/m3 | mass density (319.15 K): 1496.3 ± 1.2 kg/m3 | mass density (320.15 K): 1495.4 ± 1.2 kg/m3 | mass density (321.15 K): 1494.6 ± 1.2 kg/m3 | mass density (322.15 K): 1493.7 ± 1.2 kg/m3 | viscosity (323.15 K): 71.7 ± 2.9 mPa·s | electrical conductivity (323.15 K): 0.253 ± 0.005 S/m | mass density (323.15 K): 1492.8 ± 1.2 kg/m3 | mass density (324.15 K): 1491.9 ± 1.2 kg/m3 | mass density (325.15 K): 1491 ± 1.2 kg/m3 | mass density (326.15 K): 1490.2 ± 1.2 kg/m3 | mass density (327.15 K): 1489.3 ± 1.2 kg/m3 | viscosity (328.15 K): 58.1 ± 2.3 mPa·s | mass density (328.15 K): 1488.4 ± 1.2 kg/m3 | mass density (329.15 K): 1487.5 ± 1.2 kg/m3 | mass density (330.15 K): 1486.7 ± 1.2 kg/m3 | mass density (331.15 K): 1485.8 ± 1.2 kg/m3 | mass density (332.15 K): 1484.9 ± 1.2 kg/m3 | viscosity (333.15 K): 47.3 ± 1.9 mPa·s | mass density (333.15 K): 1484.1 ± 1.2 kg/m3 | mass density (334.15 K): 1483.2 ± 1.2 kg/m3 | mass density (335.16 K): 1482.3 ± 1.2 kg/m3 | mass density (336.15 K): 1481.5 ± 1.2 kg/m3 | mass density (337.15 K): 1480.6 ± 1.2 kg/m3 | viscosity (338.15 K): 39.7 ± 1.6 mPa·s | mass density (338.15 K): 1479.7 ± 1.2 kg/m3 | mass density (339.15 K): 1478.9 ± 1.2 kg/m3 | mass density (340.15 K): 1478 ± 1.2 kg/m3 | mass density (341.15 K): 1477.1 ± 1.2 kg/m3 | mass density (342.15 K): 1476.3 ± 1.2 kg/m3 | viscosity (343.15 K): 33.4 ± 1.4 mPa·s | mass density (343.15 K): 1475.4 ± 1.2 kg/m3 | mass density (344.15 K): 1474.6 ± 1.2 kg/m3 | mass density (345.15 K): 1473.7 ± 1.2 kg/m3 | mass density (346.15 K): 1472.8 ± 1.2 kg/m3 | mass density (347.15 K): 1472 ± 1.2 kg/m3 | viscosity (348.15 K): 28.4 ± 1.1 mPa·s | mass density (348.15 K): 1471.1 ± 1.2 kg/m3 | mass density (349.15 K): 1470.3 ± 1.2 kg/m3 | mass density (350.15 K): 1469.4 ± 1.2 kg/m3 | mass density (351.15 K): 1468.6 ± 1.2 kg/m3 | mass density (352.15 K): 1467.7 ± 1.2 kg/m3 | viscosity (353.15 K): 24.3 ± 1 mPa·s | mass density (353.15 K): 1466.8 ± 1.2 kg/m3 | mass density (354.15 K): 1466 ± 1.2 kg/m3 | mass density (355.15 K): 1465.1 ± 1.2 kg/m3 | mass density (356.15 K): 1464.3 ± 1.2 kg/m3 | mass density (357.15 K): 1463.5 ± 1.2 kg/m3 | viscosity (358.15 K): 21.1 ± 0.9 mPa·s | mass density (358.15 K): 1462.6 ± 1.2 kg/m3 | mass density (359.15 K): 1461.8 ± 1.2 kg/m3 | mass density (360.15 K): 1460.9 ± 1.2 kg/m3 | mass density (361.15 K): 1460.1 ± 1.2 kg/m3 | mass density (362.16 K): 1459.2 ± 1.2 kg/m3 | viscosity (363.15 K): 18.4 ± 0.7 mPa·s | mass density (363.15 K): 1458.4 ± 1.2 kg/m3
